According to patent publication US10028992B2, “Methods of treating muscular dystrophy” (BOARD OF REGENTS OF THE NEVADA SYSTEM OF HIGHER EDUCATION …, priority 2012, dated 2018):
Blank lines part the entries; values can stand above or below the compound they belong to.

System: α7 integrin promoter
Experiment: muscle cell-based assay: α7βgal+/− myoblasts/myotubes, LacZ reporter, β-galactosidase cleavage of FDG
Set-up: species or system mouse; Results in α7+/− β-galactosidase assay: scale not given here
Conditions: for Results in a α7+/− β-galactosidase assay, Myotubes, 0.5 uM: compound at 0.5 uM; for Results in a α7+/− β-galactosidase assay, Myotubes, 1 uM: compound at 1 uM; for Results in a α7+/− β-galactosidase assay, Myotubes, 5 uM: compound at 5 uM; for Results in a α7+/− β-galactosidase assay, Myotubes, 10 uM: compound at 10 uM; for Results in a α7+/− β-galactosidase assay, Myotubes, 20 uM: compound at 20 uM; for Results in a α7+/− β-galactosidase assay, Myotubes, 40 uM: compound at 40 uM; for AC50 / Fit HillSlope / Fit Zero Activity [%] / Fit Curve Class: Table 12; for AC50: log of AC50, given with negative sign, unit of AC50 not given, read-out: Fit Log AC50 (converted); for Fit HillSlope: curve fit; for Fit Zero Activity [%]: fitted activity at zero concentration; for Fit Curve Class: key not given; for Score: Table 12 Compound data, concentration-response curve fit; for Results in α7+/− β-galactosidase assay: Myoblasts
Outline: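 Primary α7βgal+/− mouse myoblasts (LacZ knocked into α7 integrin exon 1, promoter retained), differentiated; promoter activity read as β-galactosidase conversion of non-fluorescent FDG to fluorescein. Hits followed by dose-response, western analysis and myostatin counterscreen.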

SMILES: COc1ccccc1CC(=O)Nc1cc(S(=O)(=O)N2CCOCC2)ccc1N1CCOCC1 [drawing 491]
Results in a α7+/− β-galactosidase assay, Myotubes, 0.5 uM: 0.003263 | Results in a α7+/− β-galactosidase assay, Myotubes, 1 uM: 0.04702 | Results in a α7+/− β-galactosidase assay, Myotubes, 5 uM: −0.2793 | Results in a α7+/− β-galactosidase assay, Myotubes, 10 uM: 0.1263 | Results in a α7+/− β-galactosidase assay, Myotubes, 20 uM: −0.1143 | Results in a α7+/− β-galactosidase assay, Myotubes, 40 uM: 0.0714

EC50 (Mus musculus, enhancement of α7 integrin expression in muscle cells, read-out: EC50): 1.5 µM
SMILES: CCC(=O)c1ccccc1OCCCN1CCN(C)CC1.Cl [Compound ID# 1002, 1-{2-[3-(4-methyl-1-piperazinyl)propoxy]Phenyl}-1-propanone hydrochloride]
Optimal Concentration (enhancement of α7 integrin expression in muscle cells): 12.5 μm | α7 integrin expression in muscle (screen of DIVERSet library): increased

SMILES: CC1CCCCC12NC(=O)N(CC(=O)OCc1cccc(F)c1)C2=O (stereo not drawn) [Compound 67]
AC50 (Mus musculus): 10 µM | Fit HillSlope: 1.4163 | Fit Zero Activity [%]: 4.7344% | Fit Curve Class: 2.1 | Score: 44

SMILES: Cc1cccc2c(/N=N/c3ccc(S(=O)(=O)Nc4ccc(Cl)cc4)cc3[N+](=O)[O-])c(O)[nH]c12 [drawing 605]
Results in α7+/− β-galactosidase assay (0.5 uM): −0.02621 | Results in α7+/− β-galactosidase assay (1 uM): −0.05717 | Results in α7+/− β-galactosidase assay (5 uM): −0.2201 | Results in α7+/− β-galactosidase assay (10 uM): −0.3043 | Results in α7+/− β-galactosidase assay (20 uM): −0.4039 | Results in α7+/− β-galactosidase assay (40 uM): −0.5304

SMILES: CC(=O)C1=C(C)Nc2ncnn2C1c1ccc(C)cc1 (stereo not drawn) [drawing 655]
Results in α7+/− β-galactosidase assay (0.5 uM): −0.08387 | Results in α7+/− β-galactosidase assay (1 uM): 0.003197 | Results in α7+/− β-galactosidase assay (5 uM): 0.2805 | Results in α7+/− β-galactosidase assay (10 uM): −0.01305 | Results in α7+/− β-galactosidase assay (20 uM): −0.1533 | Results in α7+/− β-galactosidase assay (40 uM): −0.247

SMILES: NC(=O)c1nsc(C(=O)N(c2ccccc2)C(C(=O)NCc2ccc(F)cc2)c2ccc(O)cc2)c1N (stereo not drawn) [Compound 16]
AC50 (Mus musculus): 2.24 µM | Emax (Mus musculus, read-out: Max Response [%]): 75.2% | Fit HillSlope: 1.3443 | Fit Zero Activity [%]: −37.8568% | Fit Curve Class: 1.1 | Score: 84

SMILES: CCOc1ccc2oc(C(=O)OCC(=O)NC(=O)NC)c(C)c2c1 [Compound 115]
AC50 (Mus musculus): 7.08 µM | Fit HillSlope: 1.8265 | Fit Zero Activity [%]: −4.8829% | Fit Curve Class: 2.2 | Score: 43

SMILES: CCC(C)NC(=O)CSc1nnc(COc2ccc(Br)cc2)o1 (stereo not drawn) [drawing 391]
Results in a α7+/− β-galactosidase assay, Myotubes, 0.5 uM: −0.04347 | Results in a α7+/− β-galactosidase assay, Myotubes, 1 uM: −0.169 | Results in a α7+/− β-galactosidase assay, Myotubes, 5 uM: −0.2461 | Results in a α7+/− β-galactosidase assay, Myotubes, 10 uM: −0.2857 | Results in a α7+/− β-galactosidase assay, Myotubes, 20 uM: −0.2196 | Results in a α7+/− β-galactosidase assay, Myotubes, 40 uM: −0.2848

SMILES: CC(C)CN(C(=O)c1cccc(Cl)c1)c1c(N)n(Cc2ccccc2)c(=O)[nH]c1=O [drawing 544]
Results in α7+/− β-galactosidase assay (0.5 uM): 0.1169 | Results in α7+/− β-galactosidase assay (1 uM): 0.2337 | Results in α7+/− β-galactosidase assay (5 uM): 0.01239 | Results in α7+/− β-galactosidase assay (10 uM): −0.05318 | Results in α7+/− β-galactosidase assay (20 uM): −0.1028 | Results in α7+/− β-galactosidase assay (40 uM): −0.2221

SMILES: O=C1Nc2ccccc2/C1=C/c1cccnc1 [drawing 327]
Results in a α7+/− β-galactosidase assay, Myotubes, 0.5 uM: −0.03985 | Results in a α7+/− β-galactosidase assay, Myotubes, 1 uM: 0.1859 | Results in a α7+/− β-galactosidase assay, Myotubes, 5 uM: 0.1467 | Results in a α7+/− β-galactosidase assay, Myotubes, 10 uM: 0.08556 | Results in a α7+/− β-galactosidase assay, Myotubes, 20 uM: −0.2464 | Results in a α7+/− β-galactosidase assay, Myotubes, 40 uM: −0.3705

SMILES: CC(C(=O)Nc1ccc(C#N)cc1)N(C)CC(=O)Nc1cccc(F)c1 (stereo not drawn) [drawing 421]
Results in a α7+/− β-galactosidase assay, Myotubes, 0.5 uM: 0.03075 | Results in a α7+/− β-galactosidase assay, Myotubes, 1 uM: −0.03964 | Results in a α7+/− β-galactosidase assay, Myotubes, 5 uM: −0.1345 | Results in a α7+/− β-galactosidase assay, Myotubes, 10 uM: 0.2992 | Results in a α7+/− β-galactosidase assay, Myotubes, 20 uM: −0.138 | Results in a α7+/− β-galactosidase assay, Myotubes, 40 uM: 0.2085

SMILES: COc1ccccc1C(=O)Nc1ccnn1C1CCN(C(=O)c2ccoc2)CC1 [drawing 551]
Results in α7+/− β-galactosidase assay (0.5 uM): −0.09644 | Results in α7+/− β-galactosidase assay (1 uM): −0.04841 | Results in α7+/− β-galactosidase assay (5 uM): 0.05814 | Results in α7+/− β-galactosidase assay (10 uM): 0.02292 | Results in α7+/− β-galactosidase assay (20 uM): 0.01412 | Results in α7+/− β-galactosidase assay (40 uM): −0.05323

SMILES: CCOc1cc2c3c(c1)C(C)=CC(C)(C)N3C(=O)C2=O [drawing 650]
Results in α7+/− β-galactosidase assay (0.5 uM): 0.1703 | Results in α7+/− β-galactosidase assay (1 uM): 0.1592 | Results in α7+/− β-galactosidase assay (5 uM): −0.1933 | Results in α7+/− β-galactosidase assay (10 uM): −0.4363 | Results in α7+/− β-galactosidase assay (20 uM): −0.8277 | Results in α7+/− β-galactosidase assay (40 uM): −0.8257

SMILES: COc1ccc(Nc2ncnc3ccc(C)cc23)cc1 [Compound 58]
AC50 (Mus musculus): 3.55 µM | Fit HillSlope: 0.9 | Fit Zero Activity [%]: −42.3624% | Fit Curve Class: 2.1 | Score: 45
